Source: patent US20190083573A1, “DESIGNER RECEPTORS FOR […] AND METHODS OF USE THEREOF” (The Board of Trustees of the Leland Stanford Junior …, priority 2016, published 2019)

Key:
hM4D(Gi) [1] = biological target: T1, hM4D(Gi) (Homo sapiens, UniProt P08173, A203G/Y113C); test: Mechanical withdrawal testing (von Frey) after intraperitoneal CNO in mice expressing hM4D; assay type: in vivo; conditions: mice expressing hM4D receptor, 10 mg/kg CNO i.p., 60 min after administration, n=10 paws
T1 construct: HA (N); expressed in transfected cells; host or cells: mouse sciatic-nerve primary afferent nociceptors, transduced in vivo with AAV6 under the hSyn promoter
T1 sequence (P08173 1-479 Y113C/A203G): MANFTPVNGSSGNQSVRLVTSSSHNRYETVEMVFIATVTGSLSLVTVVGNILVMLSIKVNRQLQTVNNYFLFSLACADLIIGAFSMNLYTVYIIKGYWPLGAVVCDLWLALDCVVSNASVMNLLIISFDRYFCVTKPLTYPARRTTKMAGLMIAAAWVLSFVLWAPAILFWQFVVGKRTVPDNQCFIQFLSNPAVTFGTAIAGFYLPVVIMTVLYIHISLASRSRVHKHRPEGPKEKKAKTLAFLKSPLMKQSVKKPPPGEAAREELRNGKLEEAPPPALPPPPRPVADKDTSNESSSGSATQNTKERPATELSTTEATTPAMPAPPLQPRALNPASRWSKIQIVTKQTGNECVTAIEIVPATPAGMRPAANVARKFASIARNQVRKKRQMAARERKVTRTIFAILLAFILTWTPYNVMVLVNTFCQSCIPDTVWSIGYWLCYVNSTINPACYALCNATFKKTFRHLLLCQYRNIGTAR
Description: (§1) 6-8 week old mice were anesthetized with 2% isoflurane, the thigh region was cleaned and sterilized, and then the sciatic nerve was exposed. A 35 G needle was inserted into the nerve, and 2-5 μl of AAV6-hSyn-HA-hM4D-IRES-mCitrine was injected into the nerve, at the rate of 1 μl/min. The cavity was then closed, analgesics were administered, and the recovery of the mice was observed. In some experiments, mice were co-injected with 3 μl of AAV6-hSyn-ChR2-YFP, to allow for analysis of chemogenetic inhibition of optogenetically evoked pain response.
(§2) Mice were tested 3-5 weeks after intraneural injection. Mice were placed on a von Frey apparatus, and allowed to habituate for 1 hour. Mechanical withdrawal thresholds were obtained using the up-down method of testing. Mice were then briefly anesthetized with isoflurane, and injected intra-peritoneally with 100 μl of clozapine-N-oxide (for an effective dose of 10 mg/kg) or 100 μl of saline. Post-injection testing was done in a blinded manner, with mechanical withdrawal thresholds collected at 45-120 minutes post-injection. Data were then unblinded, and statistical significance assessed using the Student's t-test.

hM4D(Gi) [2] = biological target: T1, hM4D(Gi); test: Thermal withdrawal testing (Hargreaves) after intraperitoneal CNO in hM4D(Gi) mice; assay type: in vivo; conditions: 10 mg/kg CNO i.p.
Description: as §1
as §2, with “Hargreaves” for “von Frey”, “Thermal” for “Mechanical”, “latencies” for “thresholds”, “then obtained.” for “obtained using the up-down method of testing.”, “thermal” for “mechanical”

hM4D(Gi) [3] = biological target: T1, hM4D(Gi); test: Optical withdrawal testing after CNO in hM4D+/ChR2+ mice; assay type: in vivo; conditions: 10 mg/kg CNO i.p., 60 min after administration, n=5 mice
Description: as §1
In mice that were co-injected with AAV6-hSyn-HA-hM4D-IRES-mCitrine and AAV6-hSyn-ChR2-YFP optical withdrawal testing was performed 2-3 weeks post injection. Mice were placed on a glass surface and allowed to habituate for 30-45 minutes. A 473 nm laser was connected to a fiber optic cable, and used to illuminate the paw regions of the mice at varying light intensities. Mice responded to the blue light with characteristic pain-signs, engaging in paw withdrawal, shaking, and licking. […] This value was termed the ‘optical withdrawal threshold’. Due to variation in the effective illumination spot, the optical withdrawal threshold was measured in total illuminated output (in mW), rather than in mW/mm^2. […] Data were then unblinded, and statistical significance assessed using the Student's t-test.

[4] = Effect of other analgesics on the light intensity required for a pain-related response (optical withdrawal testing); assay type: in vivo; conditions: mice, blinded experiments
Description: In mice that were co-injected with AAV6-hSyn-HA-hM4D-IRES-mCitrine and AAV6-hSyn-ChR2-YFP optical withdrawal testing was performed 2-3 weeks post injection. Mice were placed on a glass surface and allowed to habituate for 30-45 minutes. A 473 nm laser was connected to a fiber optic cable, and used to illuminate the paw regions of the mice at varying light intensities. Mice responded to the blue light with characteristic pain-signs, engaging in paw withdrawal, shaking, and licking. […] This value was termed the ‘optical withdrawal threshold’. Due to variation in the effective illumination spot, the optical withdrawal threshold was measured in total illuminated output (in mW), rather than in mW/mm^2. Mice were then briefly anesthetized with isoflurane, and injected intra-peritoneally with 100 μl of clozapine-N-oxide (for an effective dose of 10 mg/kg) or 100 μl of saline. Post-injection testing was done in a blinded manner, with optical withdrawal thresholds collected at 60-90 minutes. Data were then unblinded, and statistical significance assessed using the Student's t-test.

primary afferents [5] = conditions: previously observed optogenetic inhibition of thermal perception; cited from earlier work
primary afferents [6] = conditions: previously reported optogenetic inhibition of primary afferents; cited from earlier work

Question: Which “effect size, mechanical withdrawal thresholds” value (hM4D(Gi) [1]) does the source give for `C[N+]1([O-])CCN(C2=Nc3cc(Cl)ccc3Nc3ccccc32)CC1` [CNO, clozapine-N-oxide] here?
Answer: The value was 1.3.

Question: And the “increase in mechanical withdrawal thresholds” value (hM4D(Gi) [1])?
Answer: Its value is 45%.

Question: And the “effect size, thermal thresholds” value (hM4D(Gi) [2]; 60 minutes post-injection)?
Answer: The value was 1.903.

Question: What about the “increase in thermal thresholds” value (hM4D(Gi) [2]; 60 minutes post-injection) of the same molecule?
Answer: The value was 61%.

Question: What about the “effect size, thermal thresholds” value (hM4D(Gi) [2]; 90 minutes post-injection) of the same molecule?
Answer: Its value is 2.2245.

Question: And the “increase in thermal thresholds” value (hM4D(Gi) [2]; 90 minutes post-injection)?
Answer: The value was 54%.

Question: What about the “effect size, optical withdrawal threshold” value (hM4D(Gi) [3]) of the same molecule?
Answer: The value was 1.603.

Question: And the “increase in required light intensity to achieve a pain-related response (optical withdrawal threshold)” value (hM4D(Gi) [3])?
Answer: The value was 418%.

Question: With `NCC1(CC(=O)O)CCCCC1` [gabapentin] as the molecule, how does the “effect on optical light sensitivity” value [4] read?
Answer: Its value is “strong effects”.

B1: NpHR: hyperpolarizing light-activatable polypeptide used for optogenetic inhibition (protein, UniProt P15647 1-291, looked up)
Halorhodopsin: MTETLPPVTESAVALQAEVTQRELFEFVLNDPLLASSLYINIALAGLSILLFVFMTRGLDDPRAKLIAVSTILVPVVSIASYTGLASGLTISVLEMPAGHFAEGSSVMLGGEEVDGVVTMWGRYLTWALSTPMILLALGLLAGSNATKLFTAITFDIAMCVTGLAAALTTSSHLMRWFWYAISCACFLVVLYILLVEWAQDAKAAGTADMFNTLKLLTVVMWLGYPIVWALGVEGIAVLPVGVTSWGYSFLDIVAKYIFAFLLLNYLTSNESVVSGSILDVPSASGTPADD
Question: Which “effect size of inhibition, thermal perception” value (primary afferents [5]) does the source give for B1 here?
Answer: The value was 2.05.

Question: And the “effect size of inhibition, mechanical” value (primary afferents [6])?
Answer: Its value is 0.802.
